# In ChEMBL document CHEMBL2331402, “Salicylaldoxime derivatives as new leads for the development of carbonic anhydrase inhibitors” (Bioorg Med Chem, 2013):
# Experiments:
# [1] = target: Carbonic anhydrase 12 (Homo sapiens, UniProt O43570); assay: Inhibition of human recombinant carbonic anhydrase 12 preincubated for 15 mins by CO2 hydration stopped-flow assay
# [2] = target: Carbonic anhydrase 9 (Homo sapiens, UniProt Q16790); assay: Inhibition of human recombinant carbonic anhydrase 9 preincubated for 15 mins by CO2 hydration stopped-flow assay
# [3] = target: Carbonic anhydrase 2 (Homo sapiens, UniProt P00918); assay: Inhibition of human recombinant carbonic anhydrase 2 preincubated for 15 mins by CO2 hydration stopped-flow assay
# [4] = target: Carbonic anhydrase 1 (Homo sapiens, UniProt P00915); assay: Inhibition of human recombinant carbonic anhydrase 1 preincubated for 15 mins by CO2 hydration stopped-flow assay
# Chain of Carbonic anhydrase 1 (P00915 whole entry): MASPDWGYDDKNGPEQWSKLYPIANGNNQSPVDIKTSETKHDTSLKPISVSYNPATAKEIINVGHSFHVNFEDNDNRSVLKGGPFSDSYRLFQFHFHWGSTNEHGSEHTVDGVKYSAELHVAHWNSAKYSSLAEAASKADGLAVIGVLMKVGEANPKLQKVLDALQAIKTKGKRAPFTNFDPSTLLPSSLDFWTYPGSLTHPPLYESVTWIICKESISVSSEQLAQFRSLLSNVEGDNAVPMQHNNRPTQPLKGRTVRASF
# Chain of Carbonic anhydrase 12 (O43570 whole entry): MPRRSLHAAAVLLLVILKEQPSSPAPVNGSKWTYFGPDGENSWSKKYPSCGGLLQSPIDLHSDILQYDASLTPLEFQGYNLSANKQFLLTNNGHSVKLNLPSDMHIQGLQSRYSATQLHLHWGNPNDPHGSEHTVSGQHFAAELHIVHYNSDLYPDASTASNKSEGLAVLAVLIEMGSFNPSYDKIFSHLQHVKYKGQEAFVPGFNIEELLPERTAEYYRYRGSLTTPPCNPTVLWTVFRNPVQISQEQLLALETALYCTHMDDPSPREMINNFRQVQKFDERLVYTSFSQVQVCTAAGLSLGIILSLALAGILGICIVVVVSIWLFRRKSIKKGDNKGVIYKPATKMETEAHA
Structure (SMILES),Ki [1],Ki [2],Ki [3],Ki [4]
Oc1cc(F)cc(F)c1,,0.944 µM,340 µM,
O/N=C/c1c(O)ccc(-c2ccc(O)cc2)c1Cl,4.31 µM,,2.3 µM,3.98 µM
COc1ccc(-c2ccc(O)c(/C=N/O)c2)cc1F,5.94 µM,10.2 µM,3.66 µM,6.93 µM
O/N=C/c1c(O)ccc(-c2ccc(O)c(F)c2)c1Cl,5.53 µM,7.04 µM,3.74 µM,7.27 µM
C/C(=N\O)c1ccc(-c2ccc(O)cc2)c(Cl)c1O,4.53 µM,10.2 µM,3.32 µM,6.9 µM

# Further compounds by falling Ki [3], results first:
Ki [1],Ki [2],Ki [3],Ki [4],Structure (SMILES)
7.45 µM,6.43 µM,6.35 µM,7.88 µM,Cc1c(-c2ccc(O)cc2)ccc(/C=N/O)c1O
3.14 µM,7.72 µM,5.87 µM,7.65 µM,N#Cc1c(-c2ccc(O)cc2)ccc(/C=N/O)c1O
4.77 µM,7.08 µM,4.96 µM,7.57 µM,C/C(=N\O)c1ccc(-c2ccc(O)c(F)c2)c(Cl)c1O
4.24 µM,6.99 µM,4.13 µM,9.13 µM,O/N=C/c1cc(-c2ccc(O)c(F)c2)ccc1O
